Read-outs that look alike come from different tables or passages of the source.
Assays:
[1] = system: TMD8 cells (BTG1 KO, WT, rescue, mutated rescues); settings: 72 h exposure, 0 or 50 nM, FIG. 3B
Description: (§1) TMD8 and SUDHL-4 were grown in Roswell Park Memorial Institute medium, GlutaMAX Supplement ([…], Thermofisher), supplemented with 10% FBS, 1% penicillin G/streptomycin. Cells were grown in incubators at 37 C, in a 5% CO2 atmosphere.
(§2) TMD8 and SUDHL-4 cells expressing cas9 were generated by transduction with lentiV-Cas9-blast virus (Addgene #125592, Massachusetts, USA), and selected with 2.5 μg/ml blasticidin for 7 days. […] Cells were selected with puromycin for 7 days, and GFP expression was evaluated with flow cytometry. BTG1 inactivation was validated by Western Blotting after 1 week. BTG1 rescue cell were derived from TMD8 BTG1 KO cells infected with murine BTG1 cDNA (100% protein homology with human) in a mcherry-HIV-based virus. GFP and mcherry positive cells were sorted on a FACS ARIA™ cell sorter (BD biosciences, San Jose, CA).
(§3) The high affinity MCL-1 specific inhibitor S63845 (Kotschy et al., 2016) was purchased from Selleck Chemical (München, Germany). For in vitro study, it was dissolved in DMSO at a concentration of lmmol/L. DMSO was also used as a vehicle control in the in vitro study. For cell viability assessment, 100 000 cells were seeded in 24 well plate and incubated for 72 h with either S63845 or DMSO. Culture medium was used for further dilutions (typically 5 and 50 nM). For cell viability assessment, cells were stained with Annexin V-APC and propidium iodide, analyzed on a FACS LSRII™ (BD biosciences, San Jose, CA).

[2] = system: SUDHL-4 cells (BTG1 KO, BTG1 WT); settings: SUDHL-4 BTG1 KO versus BTG1 WT; 72 h exposure; 0 or 50 nM; FIG. 3C
Description: as §1, §2, §3

With `Cc1c(-c2c(-c3ccc(F)o3)sc3ncnc(O[C@H](Cc4ccccc4OCc4ccnn4CC(F)(F)F)C(=O)O)c23)ccc(OCCN2CCN(C)CC2)c1Cl` [S63845] the “Increased sensitivity to MCL-1 inhibitor (proportion of apoptotic cells, Annexin V staining)” value ([1]; TMD8 BTG1 KO rescued with BTG1 WT) was “abolished by the expression of BTG1 WT”, the “Increased sensitivity to MCL-1 inhibitor (proportion of apoptotic cells, Annexin V staining)” value ([1]; TMD8 BTG1 KO rescued with mutated BTG1 (L26P, G66D or I115V)) was “not by the expression of mutated BTG1” and the “Proportion of apoptotic cells (Annexin V staining)” value ([1]; TMD8 BTG1 KO versus BTG1 WT) was “induces significantly more apoptosis”. The “Proportion of apoptotic cells (Annexin V staining)” value [2] was “confirmed the link between BTG1 inactivation and sensitivity to MCL-1”.

Source: patent US20240401146A1, “METHODS FOR PREDICTING AND IMPROVING THE EFFICACY OF MCL-1 INHIBITOR THERAPY” (INSTITUT NATIONAL DE LA SANTÉ ET DE LA RECHERCHE MÉDICALE, priority 2021, published 2024)
